Measurements from patent US11180510B2, “Xanthine derivatives and uses thereof as inhibitors of bromodomains of BET proteins” (Centre national de la recherche scientifique, priority 2017, dated 2021).
Values joined by “and” are separate entries in the source; they are usually repeats but may differ in a detail not shown here. Equal values may be shown once. Read-outs that look alike come from different tables or passages of the source.

Legend:
Brd2(BD1) = target: T1, Brd2(BD1) (Homo sapiens, UniProt P25440); assay: HTRF BET selectivity profile, Brd2(BD1); type: binding; details: for Ratio 2-1 vs 2-2: selectivity Brd2(BD1) vs Brd2(BD2), HTRF IC50
T1 construct: GST tagged bromodomain proteins were purchased from BPS Bioscience; purchased BPS Bioscience
T1 sequence (P25440 74-180 limits assumed): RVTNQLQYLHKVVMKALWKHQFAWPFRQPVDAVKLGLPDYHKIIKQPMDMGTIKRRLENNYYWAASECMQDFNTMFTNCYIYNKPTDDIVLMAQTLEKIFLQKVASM
Protocol: (§1) HTRF assays were performed in white 384 Well Small Volume™ HiBase Polystyrene Microplates (Greiner) with a total working volume of 20 μL. Compounds were dispensed, with 100 nL per well (0.5% final DMSO), from a concentration stock of 10 mM in 100% DMSO and with serial DMSO dilutions, using an Echo® 550 robot from the Access Labcyte platform (Labcyte) and based on the transfer of liquid by acoustic wave. Then, 19.5 μL of buffer is added, using a Multidrop Combi (Thermo Fisher Scientific). […] All HTRF reagents (donor and acceptor) were purchased from CisBio Bioassays and reconstituted according to the supplier protocols. The peptide was purchased from Genic Bio Synthetic. The BRD4(1) protein was produced and purified in the laboratory.
(§2) Percentage of inhibition was calculated using the following equation: % inhibition=[(compound signal)−(min signal)]/[(max signal)−(min signal)]*100, where ‘max signal’ is the signal ratio with the compound vehicle alone (DMSO) and ‘min signal’ the signal ratio without peptide.
(§3) Selectivity profiles of bromodomain inhibitors were performed as described in HTRF screen section. […] HTRF detection reagents (EPIgeneous™ Binding Domain kits) were purchased from Cisbio Bioassays and used according to supplier's protocol. GST tagged bromodomain proteins were purchased from BPS Bioscience and histone peptide from Genic Bio Synthetic.

Brdt(BD1) = target: T2, Brdt(BD1) (Homo sapiens, UniProt Q58F21); assay: HTRF BET selectivity profile, Brdt(BD1); type: binding
T2 construct: GST tagged bromodomain proteins were purchased from BPS Bioscience; purchased BPS Bioscience
Protocol: (§4) HTRF assays were performed in white 384 Well Small Volume™ HiBase Polystyrene Microplates (Greiner) with a total working volume of 20 μL. Compounds were dispensed, with 100 nL per well (0.5% final DMSO), from a concentration stock of 10 mM in 100% DMSO and with serial DMSO dilutions, using an Echo® 550 robot from the Access Labcyte platform (Labcyte) and based on the transfer of liquid by acoustic wave. Then, 19.5 μL of buffer is added, using a Multidrop Combi (Thermo Fisher Scientific). Finally, for each assay, 200 nL of master mix (protein+donor+acceptor) and 200 nL of peptide Is added in the assay wells according to the final concentration and buffer described in Table 3, using the Echo® 550 robot (Labcyte). The IC50 measurements were performed in triplicates (Table 2 and 3). All HTRF reagents (donor and acceptor) were purchased from CisBio Bioassays and reconstituted according to the supplier protocols. The peptide was purchased from Genic Bio Synthetic. The BRD4(1) protein was produced and purified in the laboratory. HTRF signals were measured, after a final incubation (3 h or 6 h or overnight at room temperature or 4° C., according to the bromodomain), using a PHERAstar FS (BMG Labtech) with an excitation filter at 337 nm and fluorescence wavelength measurement at 620 and 665 nm, an integration delay of 60 μs and an integration time of 500 μs. Results were analyzed with a two-wavelengths signal ratio: [intensity (665 nm)/intensity (620 nm)]*104.
as §2, §3

BRD4(BD1) [1] = target: T3, BRD4(BD1) (Homo sapiens, UniProt O60885); assay: Isothermal Titration Calorimetry; type: binding; details: ITC; read-out: Binding affinity (Kd) to BRD4(1) by Isothermal Titration Calorimetry
Protocol: FIG. 1. Isothermal Titration Calorimetry (ITC) of 43c. Thermogram (top) and non-linear least squares fit model of the integrated data (bottom) at 15° C. of Brd4 (BD1) […] as a function of the molar ratio of ligand to the protein.
ITC was used to evaluate the thermodynamics parameters of the binding between BRD4 (BD1) and the selected compounds. Titrations were carried out on a MicroCal ITC200 microcalorimeter (GE Healthcare, Piscataway, N.J.). Each experiment was designed using a titrant concentration (protein in the syringe generally between 100 and 400 μM) set 10 to 15 times the analyte concentration (compound in the cell generally between 10 and 40 μM) and using 13 injections at 25° C. A first small injection (generally 0.2 μL) was included in the titration protocol in order to remove air bubbles trapped in the syringe prior titration. Raw data were scaled after setting the zero to the titration saturation heat value. Integrated raw ITC data were fitted to a one site non-linear least squares fit model using the MicroCal Origin plugin as implemented in Origin 7 (Origin Lab). Finally, ΔG and TΔS values were calculated from the fitted ΔH and KA values using the equations ΔG=−R.T.inKA and ΔG=ΔH−TΔS.

Jurkat cells = assay: Cell Titer-Glo cell viability assay, Jurkat; type: cell-based; details: Homo sapiens, 72 h, mean of three experiments, NA = IC50 > maximal concentration used
Protocol: The human leukemia cell line Jurkat (ATCC® TIB-152) and Molm14 was maintained in RPMI-1640 medium or MEMα, respectively and supplemented both with 10% FBS at 37° C. and 5% CO2.
In antiproliferative assays, compounds were assayed for their growth inhibiting activity towards the described cancer cell lines using the Cell Titer-Glo Luminescent Cell Viability Assay as described by the manufacturer (Promega Corporation). Briefly, 10.000 cells were plated onto 96 well-plates (white with clear bottom (3610, Corning Costar)) in 90 μL media per well immediately before assay. 10 μL of compounds were added at different concentrations (ranging from 50 μM to 6 nM) to each well and cell cultures were incubated 37° C. during 72 h. Vehicle (DMSO) was used as negative control, JQ1 (a pan-BET inhibitor) was used as positive control and all compounds were tested in constant percentage of DMSO (1%). After addition of 50 μL Cell Titer-GLO, shaking 2 minutes and incubating at room temperature 10 minutes, the Luminescence was measured using a Centro luminometer LB960 (Berthold). Dose-response curves were generated and effective dose 50 values (EC50) were calculated using non-linear regression analysis (Graph Pad Prism).

BRD4(BD1) [2] = target: T3, BRD4(BD1); assay: HTRF assay, BRD4(BD1)/histone peptide interaction; type: binding; parameters: made in house; details: for IC50: HTRF; for Ratio 4-1 vs 4-2: selectivity Brd4(BD1) vs Brd4(BD2), HTRF IC50
Protocol: as §1, §2, §3

Brd3(BD1) = Brd3(BD1) (Homo sapiens, UniProt Q15059); assay: HTRF BET selectivity profile, Brd3(BD1); type: binding; parameters: GST tagged bromodomain proteins were purchased from BPS Bioscience; purchased BPS Bioscience; details: for Ratio 3-1 vs 3-2: selectivity Brd3(BD1) vs Brd3(BD2), HTRF IC50
Brd3(BD1), sequence (Q15059 34-140 limits assumed): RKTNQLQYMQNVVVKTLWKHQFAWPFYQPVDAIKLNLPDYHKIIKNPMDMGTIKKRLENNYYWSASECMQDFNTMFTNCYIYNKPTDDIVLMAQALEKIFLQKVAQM
Protocol: as §1, §2, §3

Brd4(BD2) = target: T4, Brd4(BD2) (Homo sapiens, UniProt O60885); assay: HTRF BET selectivity profile, Brd4(BD2); type: binding
T4 construct: GST tagged bromodomain proteins were purchased from BPS Bioscience; purchased BPS Bioscience
Protocol: as §4, §2, §3

Brd3(BD2) = target: T5, Brd3(BD2) (Homo sapiens, UniProt Q15059); assay: HTRF BET selectivity profile, Brd3(BD2); type: binding
T5 construct: GST tagged bromodomain proteins were purchased from BPS Bioscience; purchased BPS Bioscience
T5 sequence (Q15059 306-415 limits assumed): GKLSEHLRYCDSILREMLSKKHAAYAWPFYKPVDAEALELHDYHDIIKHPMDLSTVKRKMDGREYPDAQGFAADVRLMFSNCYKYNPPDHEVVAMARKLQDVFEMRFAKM
Protocol: as §4, §2, §3

Brd2(BD2) = target: T6, Brd2(BD2) (Homo sapiens, UniProt P25440); assay: HTRF BET selectivity profile, Brd2(BD2); type: binding
T6 construct: GST tagged bromodomain proteins were purchased from BPS Bioscience; purchased BPS Bioscience
T6 sequence (P25440 344-453 limits assumed): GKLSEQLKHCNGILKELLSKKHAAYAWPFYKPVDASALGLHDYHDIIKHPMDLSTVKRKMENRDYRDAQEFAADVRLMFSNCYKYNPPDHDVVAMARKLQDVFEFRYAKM
Protocol: as §1, §2, §3

[3] = mean of three experiments, NA = IC50 > 50 μM, read-out: Brd4(8D1) IC50
[4] = triplicates, NA = IC50 > maximal concentration of compound used

Compound | IC50 (Brd2(BD1); read-out: Brd2(BD1) IC50) [µM] | Ratio 2-1 vs 2-2 (Brd2(BD1)) | IC50 (Brdt(BD1)) [µM] | Kd (BRD4(BD1) [1]) [µM] | IC50 (Jurkat cells) [µM] | IC50 (BRD4(BD1) [2]; [3]) [µM] | IC50 (BRD4(BD1) [2]; [4]) | Ratio 4-1 vs 4-2 (BRD4(BD1) [2]) | IC50 (Brd3(BD1)) [µM] | Ratio 3-1 vs 3-2 (Brd3(BD1)) | IC50 (Brd4(BD2)) [µM] | IC50 (Brd3(BD2)) [µM] | IC50 (Brd2(BD2); read-out: Brd2(BD2) IC50) [µM] | IC50 (Brd2(BD1)) [µM] | IC50 (Brd2(BD2)) [µM]
O=C1CCCc2cc(S(=O)(=O)NCC3CCC(C(=O)NCCc4cccs4)CC3)ccc2N1 (single isomer, unassigned) [Compound 5b, 4-((2-oxo-2,3,4,5-tetrahydro-1H-benzo[b]azepine-7-sulfonamido)methyl)-N-(2-(thiophen-2-yl)ethyl)cyclohexanecarboxamide] | 6.35 | >8 | 14.6 | 2.2 | 9.3 | 3.83 | 3.8 µM | >13 | 2.38 | >21 |  |  |  |  | 
O=C1CCCc2cc(S(=O)(=O)NCC3CCC(C(=O)NCCc4cccs4)CC3)ccc2N1 (single isomer, unassigned) [Compound 5c] |  |  |  | 2.8 |  |  | 7 µM |  |  |  |  |  |  |  | 
O=C1CCCc2cc(S(=O)(=O)C3CCC(C(=O)NCCc4ccccn4)CC3)ccc2N1 (stereo not drawn) [Compound 7a] | 16.1 | 0.4 | 9.16 | 3.5 |  | 9.55 | 9.6 µM | 2 | 22.2 | 2 | 20.8 | 47.2 | 7.11 |  | 
O=C1CCCc2cc(S(=O)(=O)NCC3CCC(C(=O)NCCc4ccccn4)CC3)ccc2N1 (stereo not drawn) [Compound 7b] |  |  |  | 8.8 |  |  | 19 µM |  |  |  |  |  |  |  | 
Cc1noc(C)c1CCNC(=O)C1CCC(CNS(=O)(=O)c2ccc3c(c2)CCCC(=O)N3)CC1 (stereo not drawn) [Compound 9a] | 10.3 | 3 | 9.17 | 3.4 |  | 15.7 | 16 µM | >3 | 5.05 | >10 |  |  | 33.9 |  | 
Cc1noc(C)c1CNC(=O)c1ccc(CNS(=O)(=O)c2ccc3c(c2)CCCC(=O)N3)cc1 [Compound 15c] |  |  |  | 2.2 |  |  | 7.8 µM |  |  |  |  |  |  |  | 
Cc1noc(C)c1CCNC(=O)c1ccc(CNS(=O)(=O)c2ccc3c(c2)CCCC(=O)N3)cc1 [Compound 16a] | 8.7 | >6 | 12.5 | 5.8 |  | 10.9 | 11 µM | >5 | 8.62 | >6 |  |  |  |  | 
CCn1cnc2c1c(=O)[nH]c(=O)n2Cc1ccc(CNS(=O)(=O)c2ccc3c(c2)CCC(=O)N3)cc1 [Compound 27b] | 3.49 | 2 | 2.15 |  |  | 0.766 | 0.766 µM | 11 | 0.94 | 3 | 8.31 | 3.03 | 5.58 |  | 
CCn1cnc2c1c(=O)[nH]c(=O)n2Cc1ccc(CNS(=O)(=O)c2ccc3c(c2)CCCC(=O)N3)c2ccccc12 [Compound 31c] | 4.35 | 0.7 | 3.36 |  |  | 3.46 | 3.5 µM | 1 | 5.71 | 0.4 | 4.21 | 2.13 | 3.08 |  | 
CCn1c(CSc2nc3nc(C)cc(C)n3n2)nc2c1c(=O)[nH]c(=O)n2Cc1ccc(CNS(=O)(=O)c2ccc3c(c2)CCCC(=O)N3)cc1 [Compound 32b] |  | 0.9 | 9.54 |  |  | 0.984 | 0.964 µM and 2.7 µM | 29 | 9.6 | 0.8 | 28 | 7.27 |  | 4.37 | 3.94
CCn1cnc2c1c(=O)[nH]c(=O)n2Cc1ccc(CNC(=O)c2ccc(Cn3cccc3)cc2)cc1 [Compound 33a] |  |  |  | 20.5 |  |  | 0.371 µM |  |  |  |  |  |  |  | 
CCn1cnc2c1c(=O)[nH]c(=O)n2Cc1ccc(CNS(=O)(=O)c2ccc(OC3CCCCC3)cc2)cc1 [Compound 43a] | 0.367 | >6 | 0.474 |  |  | 0.202 | 0.202 µM | 22 | 0.258 | 10 | 4.39 | 2.44 | 2.26 |  | 
CCn1cnc2c1c(=O)[nH]c(=O)n2Cc1ccc(CNS(=O)(=O)c2ccc(OC3CCOCC3)cc2)cc1 [Compound 43b] | 0.26 | 9 | 1.1 | 0.11 |  | 0.096 | 0.096 µM | 34 | 0.13 | 22 | 3.3 | 2.9 | 2.4 |  | 
CCn1cnc2c1c(=O)[nH]c(=O)n2Cc1ccc(CNS(=O)(=O)c2ccc(N3CCOCC3)cc2)cc1 [Compound 45a] | 0.321 | 3 | 0.432 | 0.06 |  | 0.087 | 0.087 µM | 31 | 0.161 | 10 | 2.67 | 1.64 | 1.07 |  | 
